Results published in ChEMBL document CHEMBL3400102, “Design, synthesis and biological evaluation of N-phenylthieno[2,3-d]pyrimidin-4-amines as inhibitors of FGFR1” (Bioorg Med Chem, 2015).

Experiments:
[1] = biological target: Fibroblast growth factor receptor 1 (Homo sapiens, UniProt P11362); test: Inhibition of FGFR1 (unknown origin) using KKKSPGEYVNIEFG peptide substrate assessed as incorporation of [32P] into peptide by scintillation counting analysis
[2] = Antiproliferative activity against human KG1 cells after 72 hrs by MTT assay; type: functional, cell-based; conditions: KG-1, 72 h

Fibroblast growth factor receptor 1, sequence (P11362 whole entry): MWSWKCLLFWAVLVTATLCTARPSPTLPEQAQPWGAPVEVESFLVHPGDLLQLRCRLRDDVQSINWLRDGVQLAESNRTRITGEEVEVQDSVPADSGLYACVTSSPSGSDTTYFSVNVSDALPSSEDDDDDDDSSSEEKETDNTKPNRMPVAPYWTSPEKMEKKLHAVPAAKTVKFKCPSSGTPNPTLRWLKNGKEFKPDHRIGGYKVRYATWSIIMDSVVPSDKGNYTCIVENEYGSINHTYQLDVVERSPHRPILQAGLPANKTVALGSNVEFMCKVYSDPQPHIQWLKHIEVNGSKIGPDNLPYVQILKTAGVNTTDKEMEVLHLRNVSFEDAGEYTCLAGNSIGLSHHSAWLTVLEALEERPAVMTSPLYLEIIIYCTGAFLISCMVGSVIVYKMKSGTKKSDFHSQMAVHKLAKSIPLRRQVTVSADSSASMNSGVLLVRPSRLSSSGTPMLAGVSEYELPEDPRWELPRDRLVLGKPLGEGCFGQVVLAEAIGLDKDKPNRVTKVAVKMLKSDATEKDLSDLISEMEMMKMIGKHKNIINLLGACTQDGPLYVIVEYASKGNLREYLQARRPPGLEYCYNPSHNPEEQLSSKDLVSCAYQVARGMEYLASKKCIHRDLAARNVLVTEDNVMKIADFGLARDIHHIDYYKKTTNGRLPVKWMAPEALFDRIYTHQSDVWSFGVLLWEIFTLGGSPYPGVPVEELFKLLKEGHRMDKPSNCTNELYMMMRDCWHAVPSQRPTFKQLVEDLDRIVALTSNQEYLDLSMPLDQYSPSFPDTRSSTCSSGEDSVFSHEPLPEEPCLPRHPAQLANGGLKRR

| Compound | IC50 [1] [µM] | IC50 [2] [µM] |
| --- | --- | --- |
| COc1cccc(Nc2ncnc3scc(-c4ccccc4)c23)c1 | 2.5 | – |
| Cc1ccc(-c2csc3ncnc(Nc4ccc(F)cc4)c23)cc1 | > 30 | – |
| COc1ccc(Nc2ncnc3scc(-c4ccc(C)cc4)c23)cc1 | 5 | – |
| Fc1ccc(Nc2ncnc3sc4c(c23)CCCCC4)cc1Cl | 1.6 | – |
| COc1cccc(Nc2ncnc3scc(-c4ccc(Cl)cc4)c23)c1 | > 30 | – |
| CCOc1ccc(-c2csc3ncnc(Nc4cccc(O)c4)c23)cc1 | 12.5 | – |
| Oc1cccc(Nc2ncnc3scc(-c4ccc(Cl)cc4)c23)c1 | 0.5 | 50 |
| Oc1cccc(Nc2ncnc3scc(-c4ccccc4)c23)c1 | 0.18 | 26.2 |
| Fc1ccc(Nc2ncnc3scc(-c4ccccc4)c23)cc1 | 6.3 | – |
| CCOC(=O)c1sc2ncnc(Nc3ccc(F)cc3)c2c1C | > 30 | – |
| CCOc1ccc(-c2csc3ncnc(Nc4ccc(O)cc4)c23)cc1 | > 30 | – |
| CCOC(=O)c1sc2ncnc(Nc3ccc(OC)cc3)c2c1C | > 30 | – |
| Oc1ccc(Nc2ncnc3scc(-c4ccc(Cl)cc4)c23)cc1 | 3 | – |
| Oc1cccc(Nc2ncnc3sc(-c4ccccc4)cc23)c1 | 0.16 | 16.2 |
| Fc1ccccc1Nc1ncnc2sc(-c3ccccc3)cc12 | 18.2 | – |
| Cc1ccc(-c2csc3ncnc(Nc4cccc(O)c4)c23)cc1 | 0.7 | 33.9 |

| Compound | IC50 [1] [µM] | IC50 [2] [µM] |
| --- | --- | --- |
| Fc1ccc(Nc2ncnc3scc(-c4ccc(Cl)cc4)c23)cc1 | > 30 | – |
| Fc1ccccc1Nc1ncnc2sc3c(c12)CCCCC3 | 4.3 | – |
| Cc1cc2c(Nc3ccc(O)cc3)ncnc2s1 | 5.6 | – |
| Oc1ccc(Nc2ncnc3sc(-c4ccccc4)cc23)cc1 | 1.2 | – |
| Cc1nc(Nc2ccc(O)cc2)c2cc(-c3ccccc3)sc2n1 | 5 | – |
| Fc1ccc(Nc2ncnc3sc(-c4ccccc4)cc23)cc1 | 4.3 | – |
| Cc1sc2ncnc(Nc3ccc(O)cc3)c2c1-c1ccccc1 | 1.25 | – |
| COc1ccc(Nc2ncnc3scc(-c4ccccc4)c23)cc1 | 3 | – |
| CCOC(=O)c1sc2ncnc(Nc3cccc(OC)c3)c2c1C | > 30 | – |
| Oc1ccc(Nc2ncnc3scc(-c4ccccc4)c23)cc1 | 1.66 | – |
| Cc1ccc(-c2csc3ncnc(Nc4ccc(C(=O)O)cc4)c23)cc1 | > 30 | – |
| CCOC(=O)c1sc2ncnc(Nc3cccc(C(=O)O)c3)c2c1C | > 30 | – |
| CCOC(=O)c1sc2ncnc(Nc3cccc(O)c3)c2c1C | 0.5 | – |
| Fc1ccc(Nc2ncnc3sc4c(c23)CCCC4)cc1 | 3.2 | – |
| Fc1ccccc1Nc1ncnc2scc(-c3ccccc3)c12 | > 30 | – |
| Cc1ccc(-c2csc3ncnc(Nc4cccc(C(=O)O)c4)c23)cc1 | 11 | – |
